According to ChEMBL document CHEMBL1201862, “PubChem BioAssay data set” (2004):
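Test compounds were applied to cells in 96-well plates for 48 hours at 5 doses. GI50 = concentration required for 50% inhibition of growth.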 Calls of active or inactive are those of the source. No stated cut-off is given here; in the data, active = GI50 up to about 1.1 µM and inactive = higher.

Assays:
Test in all cases: NCI anticancer screen, dose series, 48 h
NCI-H226 = system: NCI-H226
HT-29 = system: HT-29
NCI-H23 = system: NCI-H23
MOLT-4 = system: MOLT-4
ACHN = system: ACHN
HCT-116 = system: HCT-116
K562 = system: K562
OVCAR-5 = system: OVCAR-5
CAKI-1 = system: CAKI-1
MDA-MB-231 = system: MDA-MB-231
A498 = system: A498
LOX IMVI = system: LOX IMVI
OVCAR-8 = system: OVCAR-8
UACC-62 = system: UACC-62
SK-MEL-5 = system: SK-MEL-5
OVCAR-4 = system: OVCAR-4
HOP-62 = system: HOP-62
DMS-114 = system: DMS-114
SN12C = system: SN12C
786-0 = system: 786-0
RXF 393 = system: RXF 393
SK-MEL-28 = system: SK-MEL-28
KM12 = system: KM12
M19-MEL = system: M19-MEL
COLO 205 = system: COLO 205
HOP-92 = system: HOP-92
DLD-1 = system: DLD-1
SR = system: SR
MDA-MB-435 = system: MDA-MB-435
RPMI-8226 = system: RPMI-8226
UO-31 = system: UO-31
HOP-18 = system: HOP-18
HCT-15 = system: HCT-15
HCC 2998 = system: HCC 2998
NCI-H522 = system: NCI-H522
PC-3 = system: PC-3
SK-MEL-2 = system: SK-MEL-2
DMS-273 = system: DMS-273
OVCAR-3 = system: OVCAR-3
M14 = system: M14
UACC-257 = system: UACC-257
HL-60 = system: HL-60
NCI-H460 = system: NCI-H460
CCRF-CEM = system: CCRF-CEM
Malme-3M = system: Malme-3M
Hs-578T = system: Hs-578T
TK-10 = system: TK-10
A549 = system: A549
BT-549 = system: BT-549
SW-620 = system: SW-620
NCI/ADR-RES = system: NCI/ADR-RES
T47D = system: T47D
DU-145 = system: DU-145
SK-OV-3 = system: SK-OV-3
MCF7 = system: MCF7
IGROV-1 = system: IGROV-1
MDA-N = system: MDA-N
EKVX = system: EKVX
KM-20L2 = system: KM-20L2
SF-268 = system: SF-268
SNB-19 = system: SNB-19
SF-295 = system: SF-295
SF-539 = system: SF-539
SNB-75 = system: SNB-75
U-251 = system: U-251

In the case of Cc1cn([C@H]2C[C@H](N=[N+]=[N-])[C@@H](CO)O2)c(=O)[nH]c1=O [ZIDOVUDINE], the GI50 (NCI-H226) is reported as > 100 µM (inactive), the GI50 (HT-29) is reported as 238 µM (inactive) and the GI50 (NCI-H23) is reported as > 100 µM (inactive). The GI50 (MOLT-4) was > 100 µM (inactive), the GI50 (ACHN) was > 100 µM (inactive) and the GI50 (HCT-116) was 88.5 µM (inactive). For the same compound, the GI50 (K562) was 177 µM (inactive), the GI50 (OVCAR-5) was > 84.5 µM (inactive) and the GI50 (CAKI-1) was > 97.1 µM (inactive). For the same compound, the GI50 (MDA-MB-231) was > 100 µM (inactive), the GI50 (A498) was 66.2 µM (inactive) and the GI50 (LOX IMVI) was > 83 µM (inactive). For the same compound, the GI50 (OVCAR-8) was 180 µM (inactive), the GI50 (UACC-62) was 239 µM (inactive) and the GI50 (SK-MEL-5) was 118 µM (inactive). For the same compound, the GI50 (OVCAR-4) was > 85.1 µM (inactive), the GI50 (HOP-62) was > 100 µM (inactive) and the GI50 (DMS-114) was > 95.5 µM (inactive). For the same compound, the GI50 (SN12C) was > 100 µM (inactive), the GI50 (786-0) was > 100 µM (inactive) and the GI50 (RXF 393) was 89.5 µM (inactive). The GI50 (SK-MEL-28) was > 100 µM (inactive), the GI50 (KM12) was 90.8 µM (inactive) and the GI50 (M19-MEL) was > 100 µM (inactive). The GI50 (COLO 205) was 98.4 µM (inactive), the GI50 (HOP-92) was > 100 µM (inactive) and the GI50 (DLD-1) was > 100 µM (inactive). The GI50 (SR) was 177 µM (inactive), the GI50 (MDA-MB-435) was 565 µM (inactive) and the GI50 (RPMI-8226) was 48.3 µM (inactive). For the same compound, the GI50 (UO-31) was > 100 µM (inactive), the GI50 (HOP-18) was > 100 µM (inactive) and the GI50 (HCT-15) was > 100 µM. For the same compound, the GI50 (HCC 2998) was > 100 µM (inactive), the GI50 (NCI-H522) was > 100 µM (inactive) and the GI50 (PC-3) was 885 µM (inactive). For the same compound, the GI50 (SK-MEL-2) was > 100 µM (inactive), the GI50 (DMS-273) was > 100 µM (inactive) and the GI50 (OVCAR-3) was > 100 µM (inactive). For the same compound, the GI50 (M14) was > 100 µM (inactive), the GI50 (UACC-257) was > 100 µM (inactive) and the GI50 (HL-60) was 646 µM (inactive). The GI50 (NCI-H460) was 42.7 µM (inactive), the GI50 (CCRF-CEM) was 288 µM (inactive) and the GI50 (Malme-3M) was > 100 µM (inactive). The GI50 (Hs-578T) was 885 µM (inactive), the GI50 (TK-10) was 656 µM (inactive) and the GI50 (A549) was > 97.3 µM (inactive). For the same compound, the GI50 (BT-549) was 488 µM (inactive), the GI50 (SW-620) was > 100 µM (inactive) and the GI50 (NCI/ADR-RES) was > 96.4 µM (inactive). The GI50 (T47D) was > 100 µM (inactive), the GI50 (DU-145) was 420 µM (inactive) and the GI50 (SK-OV-3) was > 100 µM (inactive). The GI50 (MCF7) was 66.4 µM (inactive), the GI50 (IGROV-1) was > 100 µM (inactive) and the GI50 (MDA-N) was 655 µM (inactive). The GI50 (EKVX) was > 100 µM (inactive) and the GI50 (KM-20L2) was > 100 µM (inactive).
With CC(NC1=CC(=O)c2cccnc2C1=O)C(O)c1ccccc1 (stereo not drawn) the GI50 (NCI-H226) was 1.96 µM (inactive), the GI50 (HT-29) was 2.86 µM (inactive) and the GI50 (NCI-H23) was 1.06 µM (active). The GI50 (MOLT-4) was 4.12 µM (inactive), the GI50 (ACHN) was 2.05 µM (inactive) and the GI50 (HCT-116) was 2.22 µM (inactive). The GI50 (K562) was 2.23 µM (inactive), the GI50 (OVCAR-5) was 1.79 µM (inactive) and the GI50 (CAKI-1) was 1.32 µM (inactive). For the same compound, the GI50 (MDA-MB-231) was 2.52 µM (inactive), the GI50 (A498) was 3.62 µM (inactive) and the GI50 (LOX IMVI) was 0.942 µM (active). The GI50 (OVCAR-8) was 2.92 µM (inactive), the GI50 (UACC-62) was 1.65 µM (inactive) and the GI50 (SK-MEL-5) was 1.09 µM (active). For the same compound, the GI50 (OVCAR-4) was 2.94 µM (inactive), the GI50 (HOP-62) was 1.26 µM (inactive) and the GI50 (SF-268) was 2.36 µM (inactive). The GI50 (SN12C) was 1.38 µM (inactive), the GI50 (786-0) was 2.79 µM (inactive) and the GI50 (RXF 393) was 2.71 µM (inactive). The GI50 (SK-MEL-28) was 1.62 µM (inactive), the GI50 (KM12) was 3.97 µM (inactive) and the GI50 (SNB-19) was 2.08 µM (inactive). The GI50 (COLO 205) was 1.86 µM (inactive), the GI50 (HOP-92) was 9.73 µM (inactive) and the GI50 (SR) was 2.86 µM (inactive). The GI50 (MDA-MB-435) was 0.783 µM (active), the GI50 (RPMI-8226) was 2.09 µM (inactive) and the GI50 (UO-31) was 2.15 µM (inactive). For the same compound, the GI50 (SF-295) was 1.28 µM (inactive), the GI50 (HCT-15) was 1.37 µM and the GI50 (HCC 2998) was 3.1 µM (inactive). The GI50 (SF-539) was 1.84 µM (inactive), the GI50 (NCI-H522) was 1.42 µM (inactive) and the GI50 (PC-3) was 1.65 µM (inactive). The GI50 (SK-MEL-2) was 1.5 µM (inactive), the GI50 (SNB-75) was 1.35 µM (inactive) and the GI50 (OVCAR-3) was 1.64 µM (inactive). For the same compound, the GI50 (M14) was 1.5 µM (inactive), the GI50 (UACC-257) was 1.23 µM (inactive) and the GI50 (HL-60) was 1.85 µM (inactive). For the same compound, the GI50 (NCI-H460) was 0.733 µM (active), the GI50 (CCRF-CEM) was 4.02 µM (inactive) and the GI50 (Malme-3M) was 1.48 µM (inactive). For the same compound, the GI50 (Hs-578T) was 2.53 µM (inactive), the GI50 (TK-10) was 14.8 µM (inactive) and the GI50 (A549) was 1.9 µM (inactive). For the same compound, the GI50 (BT-549) was 1.45 µM (inactive), the GI50 (SW-620) was 1.66 µM (inactive) and the GI50 (NCI/ADR-RES) was 3.63 µM (inactive). The GI50 (T47D) was 2.87 µM (inactive), the GI50 (DU-145) was 1.6 µM (inactive) and the GI50 (SK-OV-3) was 2.92 µM (inactive). For the same compound, the GI50 (MCF7) was 1.35 µM (inactive), the GI50 (IGROV-1) was 1.28 µM (inactive) and the GI50 (MDA-N) was 0.57 µM (active). For the same compound, the GI50 (U-251) was 2.78 µM (inactive) and the GI50 (EKVX) was 6.04 µM (inactive).
